Patent publication US4740601A, “Imidazole derivatives having antimicrobial activities” (SS Pharmaceutical Co., Ltd., priority 1985, dated 1988)
Converted amounts (≈) assume the structure as drawn.

System: Streptococcus faecalis IFO 12964
Assay: antimicrobial activity, MIC
Assay type: cell-based
Details: Enterococcus faecalis, IFO12964, Streptococcus faecalis IFO 12964; read-out: MIC

SMILES | MIC [µg/mL]
CCCCCCOc1ccccc1C(=CSC)n1ccnc1 (single isomer, unassigned) [Compound 27] | 12.5 (≈ 39.5 µM)

System: Candida albicans Yu-1200
Assay: antimicrobial activity, MIC
Assay type: cell-based
Details: YU1200, read-out: MIC

SMILES | MIC [µg/mL]
CCCCCCOc1ccccc1C(=CSC)n1ccnc1 (single isomer, unassigned) [Compound 27] | 50 (≈ 158 µM)

System: Fusarium moniliforme IAM 5062
Assay: antimicrobial activity, MIC
Assay type: cell-based
Details: Fusarium verticillioides, IAM5062, Fusarium moniliforme IAM 5062; read-out: MIC

SMILES | MIC [µg/mL]
CCCCCCOc1ccccc1C(=CSC)n1ccnc1 (single isomer, unassigned) [Compound 27] | < 0.2

System: Staphylococcus aureus Terajima
Assay: antimicrobial activity, MIC
Assay type: cell-based
Details: Staphylococcus aureus, read-out: MIC

SMILES | MIC [µg/mL]
CCCCCCOc1ccccc1C(=CSC)n1ccnc1 (single isomer, unassigned) [Compound 27] | 6.25 (≈ 19.7 µM)

System: Epidermophyton floccosum IFO 9045
Assay: antimicrobial activity, MIC
Assay type: cell-based
Details: Epidermophyton floccosum, IFO9045, Epidermophyton floccosum IFO 9045; read-out: MIC

SMILES | MIC [µg/mL]
CCCCCCOc1ccccc1C(=CSC)n1ccnc1 (single isomer, unassigned) [Compound 27] | < 0.2

System: Microsporum gypseum IFO 8231
Assay: antimicrobial activity, MIC
Assay type: cell-based
Details: Nannizzia gypsea, IFO8231, Microsporum gypseum IFO 8231; read-out: MIC

SMILES | MIC [µg/mL]
CCCCCCOc1ccccc1C(=CSC)n1ccnc1 (single isomer, unassigned) [Compound 27] | < 0.2

System: Bacillus subtilis ATCC 6633
Assay: antimicrobial activity, MIC
Assay type: cell-based
Details: Bacillus subtilis, ATCC6633, Bacillus subtilis ATCC 6633; read-out: MIC

SMILES | MIC [µg/mL]
CCCCCCOc1ccccc1C(=CSC)n1ccnc1 (single isomer, unassigned) [Compound 27] | 6.25 (≈ 19.7 µM)

System: Gibberella fujikuroi IAM 8046
Assay: antimicrobial activity, MIC
Assay type: cell-based
Details: Fusarium fujikuroi, IAM8046, Gibberella fujikuroi IAM 8046; read-out: MIC

SMILES | MIC [µg/mL]
CCCCCCOc1ccccc1C(=CSC)n1ccnc1 (single isomer, unassigned) [Compound 27] | < 0.2

System: Staphylococcus aureus FDA 209P
Assay: antimicrobial activity, MIC
Assay type: cell-based
Details: Staphylococcus aureus, FDA209P, read-out: MIC

SMILES | MIC [µg/mL]
CCCCCCOc1ccccc1C(=CSC)n1ccnc1 (single isomer, unassigned) [Compound 27] | 12.5 (≈ 39.5 µM)

System: Helminthosporium sesamum IAM 5012
Assay: antimicrobial activity, MIC
Assay type: cell-based
Details: Helminthosporium, IAM5012, Helminthosporium sesamum IAM 5012; read-out: MIC

SMILES | MIC [µg/mL]
CCCCCCOc1ccccc1C(=CSC)n1ccnc1 (single isomer, unassigned) [Compound 27] | < 0.2

System: Staphylococcus epidermidis ATCC 12228
Assay: antimicrobial activity, MIC
Assay type: cell-based
Details: Staphylococcus epidermidis, ATCC12228, Staphylococcus epidermidis ATCC 12228; read-out: MIC

SMILES | MIC [µg/mL]
CCCCCCOc1ccccc1C(=CSC)n1ccnc1 (single isomer, unassigned) [Compound 27] | 6.25 (≈ 19.7 µM)

System: Cladosporium fulvum IAM 5006
Assay: antimicrobial activity, MIC
Assay type: cell-based
Details: Fulvia fulva, IAM5006, Cladosporium fulvum IAM 5006; read-out: MIC

SMILES | MIC [µg/mL]
CCCCCCOc1ccccc1C(=CSC)n1ccnc1 (single isomer, unassigned) [Compound 27] | 3.12 (≈ 9.86 µM)

System: Pyricularia oryzae IAM 5016
Assay: microbe, parasite or virus in culture
Assay type: cell-based
Details: Pyricularia oryzae, IAM5016, Pyricularia oryzae IAM 5016

SMILES | MIC [µg/mL]
CCCCCCOc1ccccc1C(=CSC)n1ccnc1 (single isomer, unassigned) [Compound 27] | < 0.2

System: Trichophyton mentagrophytes QM 248
Assay: antimicrobial activity, MIC
Assay type: cell-based
Details: Trichophyton mentagrophytes, QM248, Trichophyton mentagrophytes QM 248; read-out: MIC

SMILES | MIC [µg/mL]
CCCCCCOc1ccccc1C(=CSC)n1ccnc1 (single isomer, unassigned) [Compound 27] | < 0.2

System: Penicillium chrysogenum ATCC 6010
Assay: antimicrobial activity, MIC
Assay type: cell-based
Details: Penicillium chrysogenum, ATCC6010, Penicillium chrysogenum ATCC 6010; read-out: MIC

SMILES | MIC [µg/mL]
CCCCCCOc1ccccc1C(=CSC)n1ccnc1 (single isomer, unassigned) [Compound 27] | 1.56 (≈ 4.93 µM)

System: Debaryomyces kloeckeri IFO 0015
Assay: antimicrobial activity, MIC
Assay type: cell-based
Details: IFO0015, read-out: MIC

SMILES | MIC [µg/mL]
CCCCCCOc1ccccc1C(=CSC)n1ccnc1 (single isomer, unassigned) [Compound 27] | 1.56 (≈ 4.93 µM)

System: Micrococcus lysodeixticus IFO 3333
Assay: antimicrobial activity, MIC
Assay type: cell-based
Details: Micrococcus, IFO3333, Micrococcus lysodeixticus IFO 3333; read-out: MIC

SMILES | MIC [µg/mL]
CCCCCCOc1ccccc1C(=CSC)n1ccnc1 (single isomer, unassigned) [Compound 27] | 1.56 (≈ 4.93 µM)

System: Microsporum cookei IFO 8303
Assay: antimicrobial activity, MIC
Assay type: cell-based
Details: Paraphyton cookei, IFO8303, Microsporum cookei IFO 8303; read-out: MIC

SMILES | MIC [µg/mL]
CCCCCCOc1ccccc1C(=CSC)n1ccnc1 (single isomer, unassigned) [Compound 27] | < 0.2

System: Staphylococcus aureus Smith
Assay: antimicrobial activity, MIC
Assay type: cell-based
Details: Staphylococcus aureus, read-out: MIC

SMILES | MIC [µg/mL]
CCCCCCOc1ccccc1C(=CSC)n1ccnc1 (single isomer, unassigned) [Compound 27] | 12.5 (≈ 39.5 µM)

System: Candida albicans NHL 4019
Assay: antimicrobial activity, MIC
Assay type: cell-based
Details: Candida albicans, NHL4019, Candida albicans NHL 4019; read-out: MIC

SMILES | MIC [µg/mL]
CCCCCCOc1ccccc1C(=CSC)n1ccnc1 (single isomer, unassigned) [Compound 27] | 25 (≈ 79 µM)

System: Saccharomyces ruxii 6507
Assay: antimicrobial activity, MIC
Assay type: cell-based
Details: Saccharomyces ruxii 6507; read-out: MIC

SMILES | MIC [µg/mL]
CCCCCCOc1ccccc1C(=CSC)n1ccnc1 (single isomer, unassigned) [Compound 27] | < 0.2

System: Trichophyton rubrum NHL J
Assay: antimicrobial activity, MIC
Assay type: cell-based
Details: Trichophyton rubrum, Trichophyton rubrum NHL J; read-out: MIC

SMILES | MIC [µg/mL]
CCCCCCOc1ccccc1C(=CSC)n1ccnc1 (single isomer, unassigned) [Compound 27] | < 0.2

System: Sarcina lutea ATCC 9341
Assay: antimicrobial activity, MIC
Assay type: cell-based
Details: Micrococcus luteus, ATCC9341, Sarcina lutea ATCC 9341; read-out: MIC

SMILES | MIC [µg/mL]
CCCCCCOc1ccccc1C(=CSC)n1ccnc1 (single isomer, unassigned) [Compound 27] | 3.12 (≈ 9.86 µM)

System: Aspergillus oryzae IMF 4014
Assay: antimicrobial activity, MIC
Assay type: cell-based
Details: Aspergillus oryzae, IMF4014, Aspergillus oryzae IMF 4014; read-out: MIC

SMILES | MIC [µg/mL]
CCCCCCOc1ccccc1C(=CSC)n1ccnc1 (single isomer, unassigned) [Compound 27] | < 0.2

System: Microsporum audounii IFO 6074
Assay: antimicrobial activity, MIC
Assay type: cell-based
Details: Microsporum, IFO6074, Microsporum audounii IFO 6074; read-out: MIC

SMILES | MIC [µg/mL]
CCCCCCOc1ccccc1C(=CSC)n1ccnc1 (single isomer, unassigned) [Compound 27] | < 0.2

System: Saccharomyces cerevisiae ATCC 9763
Assay: antimicrobial activity, MIC
Assay type: cell-based
Details: Saccharomyces cerevisiae, ATCC9763, Saccharomyces cerevisiae ATCC 9763; read-out: MIC

SMILES | MIC [µg/mL]
CCCCCCOc1ccccc1C(=CSC)n1ccnc1 (single isomer, unassigned) [Compound 27] | < 0.2

System: Aspergillus niger ATCC 9642
Assay: antimicrobial activity, MIC
Assay type: cell-based
Details: Aspergillus niger, ATCC9642, Aspergillus niger ATCC 9642; read-out: MIC

SMILES | MIC [µg/mL]
CCCCCCOc1ccccc1C(=CSC)n1ccnc1 (single isomer, unassigned) [Compound 27] | 0.39 (≈ 1.23 µM)

System: Trichophyton mentagrophytes IFO 5812
Assay: antimicrobial activity, MIC
Assay type: cell-based
Details: Trichophyton mentagrophytes, IFO5812, Trichophyton mentagrophytes IFO 5812; read-out: MIC

SMILES | MIC [µg/mL]
CCCCCCOc1ccccc1C(=CSC)n1ccnc1 (single isomer, unassigned) [Compound 27] | < 0.2

System: Trichophyton tonsurans IFO 5928
Assay: antimicrobial activity, MIC
Assay type: cell-based
Details: Trichophyton tonsurans, IFO5928, Trichophyton tonsurans IFO 5928; read-out: MIC

SMILES | MIC [µg/mL]
CCCCCCOc1ccccc1C(=CSC)n1ccnc1 (single isomer, unassigned) [Compound 27] | < 0.2
